Source: patent publication US20140328898A1, “Nano-Liposomal Formulations and Methods of Use” (CHILDREN'S NATIONAL MEDICAL CENTER, priority 2013, published 2014)

Assay: Size-dependent transdermal penetration of PEGylated and anionic liposomes through the stratum corneum of porcine ear tissue (Example 2), DiI fluorescence intensity profiles
Format: in vitro ADME, Yorkshire piglets
Conditions: free dye applied to the skin in liposome-free buffer (control)
Source text: For PEGylated liposomes, dimyristoylphosphatidylcholine (DMPC), cholesterol, and dipalmitoylphosphatidylethanolamine-PEG 2000 (PEG2000-PE) (Avanti Polar Lipids Inc., Alabaster, Ala.) were combined in chloroform (Mallinckrodt Baker Inc., Phillipsburg, N.J.) at a molar ratio of 70:25:5. For anionic liposomes, DMPC, cholesterol (both from Avanti), and anionic surfactant dihexadecyl phosphate (DCP) (Sigma Aldrich, St. Louis, Mo.) were mixed in chloroform (Mallinckrodt Baker Inc.) at a molar ratio of 50:40:10. The lipid mixtures were prepared in glass scintillation vials then stored in a vacuum desiccator for at least 24 hours for complete solvent removal. The desiccated lipid mixtures were re-dissolved in anhydrous ethanol (Sigma Aldrich) for a total lipid concentration of 40 mM. To assist in fluorescent imaging, a lipophilic membrane dye, 1,1′-dioctadecyl-3,3,3′,3′-tetramethylindocarbocyanine perchlorate (DiI-C18; DiI) (Life Technologies, Carlsbad, Calif.) was included into the lipid mixtures (1 wt %). […]
The microfluidic-generated liposomes contained lipophilic DiI in their bilayers and hydrophilic SF in their cores to enable fluorescence imaging of tissue penetration depth. […]

O=C([O-])c1ccccc1-c1c2ccc(=O)cc-2oc2cc([O-])ccc12.[Na+].[Na+] [free SF dye, sodium fluorescein salt]
SF dye penetration beyond the SC (in words): no penetration beyond the SC was observed
